We go through 18 molecules from patent publication US9499538B2, “Estrogen receptor modulators and uses thereof” (Seragon Pharmaceuticals, Inc., priority 2012, dated 2016).

One experiment has as its system MCF-7 cells. The experiment in a line: Breast Cancer Cell Viability Assays (MCF-7, CellTiter-Glo). Type of experiment: cell-based. Particulars: 5 days' compound exposure; for IC50: Homo sapiens, MCF7, 120 h. The essentials:
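Percent viability, background-subtracted against untreated wells, was taken from CellTiter-Glo luminescence after 5 days' exposure of MCF-7 cells. Compounds were tested at eleven semilog concentrations, final 0.3–0.000003 μM, in RPMI containing 10% FBS.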
A general note: In ATP-based viability assays light output follows the ATP content of the culture.

In the next experiment the target is T1, ER-α in MCF-7 cells (Homo sapiens, UniProt P03372).
T1 construct: endogenous in cells; host or cells: MCF-7
T1 sequence (P03372 1-595): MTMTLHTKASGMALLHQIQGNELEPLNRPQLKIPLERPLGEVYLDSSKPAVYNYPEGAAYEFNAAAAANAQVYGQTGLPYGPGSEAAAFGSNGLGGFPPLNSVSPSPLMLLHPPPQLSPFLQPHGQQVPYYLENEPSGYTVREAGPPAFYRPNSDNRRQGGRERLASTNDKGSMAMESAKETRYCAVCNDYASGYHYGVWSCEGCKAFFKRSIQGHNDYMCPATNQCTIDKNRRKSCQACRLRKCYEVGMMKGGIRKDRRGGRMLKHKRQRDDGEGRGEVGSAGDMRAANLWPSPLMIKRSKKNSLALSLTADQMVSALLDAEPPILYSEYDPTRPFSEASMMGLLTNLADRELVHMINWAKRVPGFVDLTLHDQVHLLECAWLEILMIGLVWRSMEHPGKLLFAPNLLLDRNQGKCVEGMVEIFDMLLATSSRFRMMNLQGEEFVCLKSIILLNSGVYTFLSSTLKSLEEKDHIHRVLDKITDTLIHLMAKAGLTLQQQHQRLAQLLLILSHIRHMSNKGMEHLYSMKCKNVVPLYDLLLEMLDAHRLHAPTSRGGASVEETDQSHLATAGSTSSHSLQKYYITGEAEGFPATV
Kind of experiment: Breast Cancer Cell ER-α In Cell Western Assay (SP1). Type of experiment: cell-based. Particulars: 4 or 24 hr post compound addition; for Emax: MCF7, SP1 antibody, read-out: ER-α In Cell Western Assay (SP1) Max Response; for DC50: SP1 antibody, read-out: ER-α In Cell Western Assay (SP1) IC50. The essentials: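 ER-α levels quantified by in-cell western: SP1 signal normalised to DRAQ5 DNA stain, relative to untreated cells (% ER). Compounds at 0.3–0.000003 μM final, 11-point semilog series, 4 or 24 h exposure of MCF-7 cells grown in charcoal-stripped serum.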

Broadly, the IC50 is the midpoint of a concentration-inhibition curve. A higher IC50 goes with weaker potency. In the case of `N#Cc1cc(F)ccc1/C(=C(\c1ccc(/C=C/C(=O)O)cc1)c1ccc2[nH]ncc2c1F)C1CCC1` [Example 66, (E)-3-(4-((E)-2-(2-Cyano-4-fluorophenyl)-2-cyclobutyl-1-(4-fluoro-1H-indazol-5-yl)vinyl)phenyl)acrylic acid], in the experiment with MCF-7 cells, the “MCF7 Viability Assay Max Response” value is on record as “++ (++ = a single % value ≧ 40%)” and the IC50 was at most 0.1 µM. At ER-α in MCF-7 cells, the Emax was at least 40% and the DC50 is at most 0.1 µM.

For `COc1ccc(/C(=C(\c2ccc(/C=C/C(=O)O)cc2)c2ccc3[nH]nc(F)c3c2)C2CCC2)c(Cl)c1` [Example 67, (E)-3-(4-((E)-2-(2-Chloro-4-methoxyphenyl)-2-cyclobutyl-1-(3-fluoro-1H-indazol-5-yl)vinyl)phenyl)acrylic acid], in the experiment on MCF-7 cells, the “MCF7 Viability Assay Max Response” value was “++ (++ = a single % value ≧ 40%)” and the IC50 was at most 0.1 µM. Moreover, at ER-α in MCF-7 cells, the Emax was at least 40% and the DC50 was at most 0.1 µM.

Consider `COc1ccc(/C(=C(\c2ccc(/C=C/C(=O)O)cc2)c2ccc3[nH]nc(F)c3c2)C2CCC2)c(F)c1` [Example 68, (E)-3-(4-((E)-2-Cyclobutyl-1-(3-fluoro-1H-indazol-5-yl)-2-(2-fluoro-4-methoxyphenyl)vinyl)phenyl)acrylic acid], for which, in the experiment with MCF-7 cells, the “MCF7 Viability Assay Max Response” value is given as “++ (++ = a single % value ≧ 40%)” and the IC50 was at most 0.1 µM. On ER-α in MCF-7 cells, the Emax was at least 40% and the DC50 is at most 0.1 µM.

Regarding `COc1ccc(/C(=C(\c2ccc(/C=C/C(=O)O)cc2)c2ccc3[nH]nc(F)c3c2)C2CCC2)c(C)n1` [Example 69, (E)-3-(4-((E)-2-Cyclobutyl-1-(3-fluoro-1H-indazol-5-yl)-2-(6-methoxy-2-methylpyridin-3-yl)vinyl)phenyl)acrylic acid], in the experiment on MCF-7 cells, the “MCF7 Viability Assay Max Response” value is listed as “++ (++ = a single % value ≧ 40%)” and the IC50 was at most 0.1 µM. Besides, on ER-α in MCF-7 cells, the Emax was at least 40% and the DC50 was at most 0.1 µM.

As for `CC/C(=C(/c1ccc(/C=C/C(=O)O)cc1)c1ccc2[nH]nc(F)c2c1)c1ccc(OC)nc1C` [Example 70, (E)-3-(4-((E)-1-(3-Fluoro-1H-indazol-5-yl)-2-(6-methoxy-2-methylpyridin-3-yl)but-1-en-1-yl)phenyl)acrylic acid], in the experiment on MCF-7 cells, the “MCF7 Viability Assay Max Response” value was “++ (++ = a single % value ≧ 40%)” and the IC50 is at most 0.1 µM. On ER-α in MCF-7 cells, the Emax is at least 40% and the DC50 is at most 0.1 µM.

As for `CC/C(=C(/c1ccc(/C=C/C(=O)O)cc1)c1ccc2[nH]nc(F)c2c1)c1cnc(OC)cc1C` [Example 71, (E)-3-(4-((E)-1-(3-Fluoro-1H-indazol-5-yl)-2-(6-methoxy-4-methylpyridin-3-yl)but-1-en-1-yl)phenyl)acrylic acid], in the experiment with MCF-7 cells, the “MCF7 Viability Assay Max Response” value was “++ (++ = a single % value ≧ 40%)” and the IC50 is at most 0.1 µM. At ER-α in MCF-7 cells, the Emax is at least 40% and the DC50 was at most 0.1 µM.

Take `CSc1ccc(/C(=C(\c2ccc(/C=C/C(=O)O)cc2)c2ccc3[nH]nc(F)c3c2)C2CCC2)c(C)c1` [Example 72, (E)-3-(4-((E)-2-Cyclobutyl-1-(3-fluoro-1H-indazol-5-yl)-2-(2-methyl-4-(methylthio)phenyl)vinyl)phenyl)acrylic acid]: in the experiment with MCF-7 cells, the “MCF7 Viability Assay Max Response” value was “++ (++ = a single % value ≧ 40%)” and the IC50 was at most 0.1 µM. Also, on ER-α in MCF-7 cells, the Emax is at least 40% and the DC50 was at most 0.1 µM.

With `CSc1ccc(/C(=C(\c2ccc(/C=C/C(=O)O)cc2)c2ccc3[nH]nc(F)c3c2)C2CCC2)c(Cl)c1` [Example 73, (E)-3-(4-((E)-2-(2-Chloro-4-(methylthio)phenyl)-2-cyclobutyl-1-(3-fluoro-1H-indazol-5-yl)vinyl)phenyl)acrylic acid], in the experiment with MCF-7 cells, the “MCF7 Viability Assay Max Response” value is recorded as “++ (++ = a single % value ≧ 40%)” and the IC50 was at most 0.1 µM. On ER-α in MCF-7 cells, the Emax was at least 40% and the DC50 was at most 0.1 µM.

As to `N#Cc1cnccc1/C(=C(\c1ccc(/C=C/C(=O)O)cc1)c1ccc2[nH]nc(F)c2c1)C1CCC1` [Example 74, (E)-3-(4-((E)-2-(3-Cyanopyridin-4-yl)-2-cyclobutyl-1-(3-fluoro-1H-indazol-5-yl)vinyl)phenyl)acrylic acid], in the experiment with MCF-7 cells, the “MCF7 Viability Assay Max Response” value is “++ (++ = a single % value ≧ 40%)” and the IC50 was at most 0.1 µM. Further, at ER-α in MCF-7 cells, the Emax was at least 40% and the DC50 is at most 0.1 µM.

On to `O=C(O)/C=C/c1ccc(/C(=C(\c2ccc(F)cc2Cl)C2CCC2)c2cc3ccccc3o2)cc1` [Example 75, (E)-3-(4-((E)-1-(Benzofuran-2-yl)-2-(2-chloro-4-fluorophenyl)-2-cyclobutylvinyl)phenyl)acrylic acid], for which, in the experiment with MCF-7 cells, the “MCF7 Viability Assay Max Response” value is “++ (++ = a single % value ≧ 40%)” and the IC50 was at most 0.1 µM. Also, at ER-α in MCF-7 cells, the Emax was at least 40% and the DC50 was at most 0.1 µM.

On to `COc1cccc2c(/C(=C(/c3ccc(F)cc3Cl)C3CCC3)c3ccc(/C=C/C(=O)O)cc3)coc12` [Example 76, (E)-3-(4-((E)-2-(2-Chloro-4-fluorophenyl)-2-cyclobutyl-1-(7-methoxybenzofuran-3-yl)vinyl)phenyl)acrylic acid], for which, in the experiment on MCF-7 cells, the “MCF7 Viability Assay Max Response” value is on record as “++ (++ = a single % value ≧ 40%)” and the IC50 was at most 0.1 µM. On ER-α in MCF-7 cells, the Emax is at least 40% and the DC50 was at most 0.1 µM.

Consider `O=C(O)/C=C/c1ccc(/C(=C(\c2ccncc2Cl)C2CCC2)c2cc3ccccc3o2)cc1` [Example 77, (E)-3-(4-((E)-1-(Benzofuran-2-yl)-2-(3-chloropyridin-4-yl)-2-cyclobutylvinyl)phenyl)acrylic acid], for which, in the experiment with MCF-7 cells, the “MCF7 Viability Assay Max Response” value was “++ (++ = a single % value ≧ 40%)” and the IC50 was at most 0.1 µM. In addition, at ER-α in MCF-7 cells, the Emax was at least 40% and the DC50 was at most 0.1 µM.

As to `COc1cccc2c(/C(=C(/c3ccncc3Cl)C3CCC3)c3ccc(/C=C/C(=O)O)cc3)coc12` [Example 78, (E)-3-(4-((E)-2-(3-Chloropyridin-4-yl)-2-cyclobutyl-1-(7-methoxybenzofuran-3-yl)vinyl)phenyl)acrylic acid], in the experiment on MCF-7 cells, the “MCF7 Viability Assay Max Response” value was “++ (++ = a single % value ≧ 40%)” and the IC50 is at most 0.1 µM. For the same molecule, at ER-α in MCF-7 cells, the Emax was at least 40% and the DC50 is at most 0.1 µM.

For the molecule `O=C(O)/C=C/c1ccc(/C(=C(\c2ccc(F)cc2Cl)C2CCC2)c2ccc3[nH]nnc3c2)cc1` [Example 79, (E)-3-(4-((E)-1-(1H-Benzo[d][1,2,3]triazol-5-yl)-2-(2-chloro-4-fluoro-phenyl)-2-cyclobutylvinyl)phenyl)acrylic acid], in the experiment on MCF-7 cells, the “MCF7 Viability Assay Max Response” value was “++ (++ = a single % value ≧ 40%)” and the 50% inhibitory concentration (IC50) is at most 0.1 µM. Besides, on ER-α in MCF-7 cells, the Emax was at least 40% and the DC50 is at most 0.1 µM.

Consider `O=C(O)/C=C/c1ccc(/C(=C(\c2ccc(F)cc2Cl)C2CCC2)c2cccc3[nH]ncc23)cc1` [Example 80, (E)-3-(4-((E)-2-(2-Chloro-4-fluorophenyl)-2-cyclobutyl-1-(1H-indazol-4-yl)vinyl)phenyl)acrylic acid], for which, in the experiment with MCF-7 cells, the “MCF7 Viability Assay Max Response” value is given as “++ (++ = a single % value ≧ 40%)” and the IC50 is at most 0.1 µM. Also, on ER-α in MCF-7 cells, the Emax is at least 40% and the DC50 was at most 0.1 µM.

As for `COc1cc(/C(=C(\c2ccc(/C=C/C(=O)O)cc2)c2ccc3[nH]nc(F)c3c2)C2CCC2)ccn1` [Example 81, (E)-3-(4-((E)-2-Cyclobutyl-1-(3-fluoro-1H-indazol-5-yl)-2-(2-methoxypyridin-4-yl)vinyl)phenyl)acrylic acid], in the experiment on MCF-7 cells, the “MCF7 Viability Assay Max Response” value was “++ (++ = a single % value ≧ 40%)” and the IC50 was at most 0.1 µM. Also, on ER-α in MCF-7 cells, the Emax is at least 40% and the DC50 is at most 0.1 µM.

As for `N#Cc1cscc1/C(=C(\c1ccc(/C=C/C(=O)O)cc1)c1ccc2[nH]nc(F)c2c1)C1CCC1` [Example 82, (E)-3-(4-((E)-2-(4-Cyanothiophen-3-yl)-2-cyclobutyl-1-(3-fluoro-1H-indazol-5-yl)vinyl)phenyl)acrylic acid], in the experiment with MCF-7 cells, the “MCF7 Viability Assay Max Response” value is reported as “++ (++ = a single % value ≧ 40%)” and the IC50 is at most 0.1 µM. Further, on ER-α in MCF-7 cells, the Emax was at least 40% and the DC50 was at most 0.1 µM.

Consider `Cc1cnccc1/C(=C(\c1ccc(/C=C/C(=O)O)cc1)c1ccc2scnc2c1)C1CCC1` [Example 83, (E)-3-(4-((E)-1-(Benzo[d]thiazol-5-yl)-2-cyclobutyl-2-(3-methylpyridin-4-yl)vinyl)phenyl)acrylic acid], for which, in the experiment with MCF-7 cells, the “MCF7 Viability Assay Max Response” value is “++ (++ = a single % value ≧ 40%)” and the IC50 is at most 0.1 µM. Moreover, at ER-α in MCF-7 cells, the Emax was at least 40% and the DC50 was at most 0.1 µM.
